Laboratory results taken from the NIST ThermoML archive (doi:10.1016/j.jct.2019.06.029).
Numbers after ± are expanded uncertainties.

Assay: wn = mass fraction of the nth substance listed
Conditions: 100 kPa, Liquid; for viscosity: Falling or rolling sphere viscometry; for speed of sound: Frequency=3 MHz, Single path-length method; for mass density: Vibrating tube method

O [water] + CCCCCC[n+]1ccc(C)cc1.[Br-]
w2 = 0
Conditions | viscosity [mPa·s]
288.15 K | 1.136 ± 0.046
293.15 K | 1.001 ± 0.041
298.15 K | 0.89 ± 0.036
303.15 K | 0.797 ± 0.032
308.15 K | 0.718 ± 0.029

O [water] + CCCCCCCC[n+]1ccc(C)cc1.[Br-]
w2 = 0
Conditions | viscosity [mPa·s]
288.15 K | 1.136 ± 0.046
293.15 K | 1.001 ± 0.041
298.15 K | 0.89 ± 0.036
303.15 K | 0.797 ± 0.032
308.15 K | 0.718 ± 0.029

O [water] + CCCC[n+]1ccc(C)cc1.[Br-]
w2 = 0
Conditions | viscosity [mPa·s]
288.15 K | 1.136 ± 0.046
293.15 K | 1.001 ± 0.041
298.15 K | 0.89 ± 0.036
303.15 K | 0.797 ± 0.032
308.15 K | 0.718 ± 0.029

CCCCCCCC[n+]1ccc(C)cc1.[Br-] [1-octyl-4-methylpyridinium bromide] + O
Conditions | mass density, w1 = 0.01 [kg/m3] | mass density, w1 = 0.015 [kg/m3] | mass density, w1 = 0.02 [kg/m3] | speed of sound, w1 = 0.01 [m/s] | speed of sound, w1 = 0.015 [m/s] | speed of sound, w1 = 0.02 [m/s] | viscosity, w1 = 0.01 [mPa·s] | viscosity, w1 = 0.015 [mPa·s] | viscosity, w1 = 0.02 [mPa·s]
288.15 K | 1000.54 ± 0.62 | 1001.29 ± 0.62 | 1002.09 ± 0.62 | 1473.8 ± 2.1 | 1477 ± 2.1 | 1480.5 ± 2.1 | 1.179 ± 0.048 | 1.196 ± 0.049 | 1.217 ± 0.05
293.15 K | 999.566 ± 0.62 | 1000.32 ± 0.62 | 1001.1 ± 0.62 | 1489.1 ± 2.1 | 1492.2 ± 2.1 | 1495.3 ± 2.1 | 1.031 ± 0.042 | 1.046 ± 0.043 | 1.063 ± 0.044
298.15 K | 998.379 ± 0.62 | 999.123 ± 0.62 | 999.874 ± 0.62 | 1502.6 ± 2.1 | 1505.3 ± 2.1 | 1508.2 ± 2.1 | 0.915 ± 0.037 | 0.929 ± 0.038 | 0.941 ± 0.038
303.15 K | 996.945 ± 0.62 | 997.706 ± 0.62 | 998.407 ± 0.61 | 1514.5 ± 2.1 | 1516.7 ± 2.1 | 1519.5 ± 2.1 | 0.817 ± 0.033 | 0.833 ± 0.034 | 0.844 ± 0.034
308.15 K | 995.3 ± 0.62 | 996.048 ± 0.62 | 996.742 ± 0.62 | 1524.5 ± 2.1 | 1526.4 ± 2.1 | 1528.8 ± 2.1 | 0.737 ± 0.03 | 0.749 ± 0.031 | 0.76 ± 0.031

CCCCCC[n+]1ccc(C)cc1.[Br-] [1-hexyl-4-methylpyridinium bromide] + O
Conditions | mass density, w1 = 0.01 [kg/m3] | mass density, w1 = 0.015 [kg/m3] | mass density, w1 = 0.02 [kg/m3] | speed of sound, w1 = 0.01 [m/s] | speed of sound, w1 = 0.015 [m/s] | speed of sound, w1 = 0.02 [m/s] | viscosity, w1 = 0.01 [mPa·s] | viscosity, w1 = 0.015 [mPa·s] | viscosity, w1 = 0.02 [mPa·s]
288.15 K | 1000.9 ± 0.63 | 1001.79 ± 0.62 | 1002.56 ± 0.62 | 1473.1 ± 2.1 | 1476.5 ± 2.1 | 1479.6 ± 2.1 | 1.172 ± 0.048 | 1.183 ± 0.048 | 1.195 ± 0.049
293.15 K | 999.956 ± 0.62 | 1000.82 ± 0.63 | 1001.8 ± 0.62 | 1488.7 ± 2.1 | 1491.6 ± 2.1 | 1493.8 ± 2.1 | 1.028 ± 0.042 | 1.039 ± 0.042 | 1.05 ± 0.043
298.15 K | 998.796 ± 0.62 | 999.636 ± 0.62 | 1000.38 ± 0.62 | 1502.2 ± 2.1 | 1504.9 ± 2.1 | 1507.5 ± 2 | 0.913 ± 0.037 | 0.924 ± 0.038 | 0.934 ± 0.038
303.15 K | 997.389 ± 0.62 | 998.196 ± 0.62 | 998.926 ± 0.61 | 1514 ± 2.1 | 1516.4 ± 2.1 | 1518.9 ± 2 | 0.817 ± 0.033 | 0.824 ± 0.034 | 0.834 ± 0.034
308.15 K | 995.718 ± 0.62 | 996.546 ± 0.62 | 997.238 ± 0.62 | 1524 ± 2 | 1526.2 ± 2.1 | 1528.6 ± 2.1 | 0.738 ± 0.03 | 0.746 ± 0.03 | 0.753 ± 0.031

CCCC[n+]1ccc(C)cc1.[Br-] [1-butyl-4-methylpyridinium bromide] + O
Conditions | mass density, w1 = 0.01 [kg/m3] | mass density, w1 = 0.015 [kg/m3] | mass density, w1 = 0.02 [kg/m3] | speed of sound, w1 = 0.01 [m/s] | speed of sound, w1 = 0.015 [m/s] | speed of sound, w1 = 0.02 [m/s] | viscosity, w1 = 0.01 [mPa·s] | viscosity, w1 = 0.015 [mPa·s] | viscosity, w1 = 0.02 [mPa·s]
288.15 K | 1001.16 ± 0.64 | 1002.26 ± 0.64 | 1003.42 ± 0.64 | 1472.7 ± 2.1 | 1475.5 ± 2.1 | 1478 ± 2.1 | 1.165 ± 0.047 | 1.176 ± 0.048 | 1.195 ± 0.049
293.15 K | 1000.23 ± 0.64 | 1001.31 ± 0.64 | 1002.47 ± 0.64 | 1488.2 ± 2.1 | 1490.8 ± 2.1 | 1493.3 ± 2 | 1.024 ± 0.042 | 1.037 ± 0.042 | 1.044 ± 0.043
298.15 K | 999.051 ± 0.63 | 1000.13 ± 0.64 | 1001.26 ± 0.64 | 1501.9 ± 2.1 | 1504.1 ± 2.1 | 1506.5 ± 2 | 0.907 ± 0.037 | 0.919 ± 0.037 | 0.926 ± 0.038
303.15 K | 997.647 ± 0.63 | 998.68 ± 0.64 | 999.765 ± 0.64 | 1513.7 ± 2 | 1515.7 ± 2 | 1517 ± 2 | 0.813 ± 0.033 | 0.824 ± 0.034 | 0.833 ± 0.034
308.15 K | 996.019 ± 0.63 | 996.958 ± 0.64 | 998.102 ± 0.64 | 1523.9 ± 2 | 1525.8 ± 2 | 1527.7 ± 2 | 0.734 ± 0.03 | 0.745 ± 0.03 | 0.75 ± 0.031
